Experimental data taken from patent US7074824B2, “Pharmaceutical compositions containing beta-lapachone, or derivatives or analogs thereof, and methods of using same” (Arqule, Inc., priority 2001, dated 2006).

What was measured:
A2780DDP = conditions: stated as typical value, read-out: IC50 concentration; cited from earlier work
human carcinoma cells = assay: Colony formation assay of β-lapachone combined with Taxol®; assay type: cell-based; conditions: 4 h exposure, colonies scored after 10–20 days; ovarian, breast, prostate, melanoma, lung and pancreatic cell lines, FIG. 4
Protocol: In these studies, exponentially growing cells were seeded at 1,000 cells per well in six-well plates and allowed to attach for 48 h. β-lapachone and/or Taxol®, solubilized in DMSO, were added to the wells. Control wells were treated with equivalent volumes of DMSO. After 4 h cells were rinsed and fresh medium was added. Cultures were observed daily for 10–20 days and then were fixed and stained. Colonies of greater than 30 cells were scored as survivors.

[1] = test system: Human ovarian cancer cells (36M2); assay: Human ovarian cancer xenograft model, β-lapachone in Lipiodol and Taxol®; assay type: in vivo, athymic female nude mice; conditions: i.p., 10 cycles
Protocol: Human ovarian cancer cells (36M2, originally isolated from malignant ascites) were inoculated by i.p. injection into athymic female nude mice 24 h after irradiation. In this model, metastatic foci form approximately 1 week after inoculation, and tumor nodules of the peritoneum and malignant ascites develop in 4–5 weeks. Ten days after tumor inoculation (10×10^6 cells), treatment regimens were initiated. The control group was treated with vehicle alone. In each typical treatment cycle, the β-lapachone alone group was treated with 25–50 mg/kg i.p. of β-lapachone in Lipiodol solution and the Taxol® alone group was treated at 1 mg/kg i.p. (Taxol® formulation diluted in Lipiodol), both followed 24 h later by i.p. injection of vehicle. In the combination group, nude mice were treated with β-lapachone at 25–50 mg/kg, followed 24 h later by Taxol® at 1 mg/kg. All groups were treated for 10 cycles, with a 1-day break between each cycle. […] Host toxicity was evaluated by general appearance and body weight.

Row | SMILES | IC50 (A2780DDP) [µM] | inhibition of cancer cell survival (colony formation) (human carcinoma cells) | decrease in tumor number versus control ([1]; assessed day 50, β-lapachone 25–50 mg/kg in Lipiodol, Taxol® 1 mg/kg) [%] | size of the tumor nodules and amount of ascites ([1]; laparotomy at day 50)
1 | N.N.[Cl][Pt][Cl] [cisplatin] | > 100 | – | – | –
2 | CC(=O)O[C@H]1C(=O)[C@@]2(C)[C@H]([C@H](OC(=O)c3ccccc3)[C@]3(O)C[C@H](OC(=O)[C@H](O)[C@@H](NC(=O)c4ccccc4)c4ccccc4)C(C)=C1C3(C)C)[C@]1(OC(C)=O)CO[C@@H]1C[C@@H]2O [Taxol®, paclitaxel, reference compound] | – | much less effective | ~60 | considerable reduction in the size of the tumor nodules and the amount of ascites
